As usually defined, the GI50 is the concentration at which growth is held to half of that of the control. Usually TGI stands for the concentration at which net growth stops. A higher TGI goes with lower sensitivity of the cells.

“And” between values parts separate entries of the source, which are not always exact repeats. Identical values can stand only once.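 These data come from cells grown in 96-well plates and exposed to compound for 48 hours at five concentrations. GI50 is the concentration that inhibits growth by half. TGI: concentration producing complete growth inhibition.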

Among the data in PubChem BioAssay (NCI) are GI50 and TGI values, retold here.

Test systems include 786-0 renal; BT-549 breast; HCC-2998 colon; HCT-116 colon; NCI-H226 lung; OVCAR-8 ovarian; SK-MEL-5 melanoma; SNB-75 CNS; U251 CNS; UACC-257 melanoma.
Common to all, as to assay: DTP human tumour cell line panel, 48 h

For `NC(=O)c1cccc2c(N[C@H](CN3CCC3)c3ccc(Cl)c(C(F)(F)F)c3)ncnc12`, the GI50 in the assay with 786-0 renal is 0.0921 µM; in the assay on BT-549 breast, 0.657 µM; in the assay on HCC-2998 colon, 1.17 µM; with HCT-116 colon, 2.32 µM; with NCI-H226 lung it was 1.99 µM; in the assay on OVCAR-8 ovarian it was 4.55 µM. Further, the GI50 is 1.7 µM in the assay on SK-MEL-5 melanoma, 0.0506 µM with SNB-75 CNS, 0.548 µM in the assay on U251 CNS and 1.22 µM in the assay with UACC-257 melanoma. In addition, the TGI in the assay with 786-0 renal came to 1.76 µM; with BT-549 breast, 3.61 µM; in the assay on HCC-2998 colon, 2.88 µM; with HCT-116 colon, 11.7 µM; with NCI-H226 lung it was 16.2 µM; in the assay with OVCAR-8 ovarian, 19.2 µM. Further, the TGI with SK-MEL-5 melanoma was 3.27 µM; in the assay with SNB-75 CNS it was 0.918 µM; with U251 CNS, 12.1 µM; in the assay on UACC-257 melanoma it was 5.27 µM.

As for `N#Cc1c(NCc2ccccc2)nc(NCc2ccccc2)c(C#N)c1-c1ccc(Cl)cc1`, the GI50 in the assay on 786-0 renal was > 50 µM and 41.5 µM; in the assay on BT-549 breast it was 63.6 µM; in the assay with HCC-2998 colon it was above 100 µM; with HCT-116 colon it was > 50 µM and 24.6 µM; in the assay with NCI-H226 lung, > 50 µM and 25.6 µM; with OVCAR-8 ovarian, > 50 µM and 45.7 µM. Besides, the GI50 with SK-MEL-5 melanoma was above 100 µM; in the assay on SNB-75 CNS, > 50 µM and 34.7 µM; in the assay on U251 CNS, > 50 µM and 19.2 µM; in the assay on UACC-257 melanoma it was above 100 µM. Also, the TGI with 786-0 renal was above 100 µM; with BT-549 breast, above 100 µM; in the assay with HCC-2998 colon it was above 100 µM; in the assay on HCT-116 colon, above 100 µM; in the assay with NCI-H226 lung it was > 50 µM and 81.4 µM; in the assay with OVCAR-8 ovarian it was above 100 µM. Moreover, the TGI is above 100 µM in the assay on SK-MEL-5 melanoma; above 100 µM with SNB-75 CNS; > 50 µM and 40.8 µM in the assay with U251 CNS; above 100 µM in the assay with UACC-257 melanoma.

On to `COc1cc2c3c(n(CCCN4CCNCC4)c(=O)c2cc1OC)-c1cc2c(cc1C3=O)OCO2`, for which the 50% growth inhibitory concentration (GI50) was 0.0513 µM with 786-0 renal; 1.4 µM in the assay on BT-549 breast; 1.15 µM in the assay with HCC-2998 colon; 0.281 µM in the assay on HCT-116 colon; 0.127 µM with NCI-H226 lung; 0.0803 µM in the assay on OVCAR-8 ovarian. For the same molecule, the GI50 is 1.33 µM with SK-MEL-5 melanoma, 1.44 µM in the assay with SNB-75 CNS, 0.0892 µM in the assay on U251 CNS and 7.08 µM in the assay with UACC-257 melanoma. Besides, the concentration for total growth inhibition (TGI) stood at 0.429 µM with 786-0 renal; 7.97 µM in the assay with BT-549 breast; 3.98 µM with HCC-2998 colon; 2.42 µM in the assay with HCT-116 colon; 3.71 µM in the assay on NCI-H226 lung; 1.06 µM with OVCAR-8 ovarian. Besides, the total growth inhibition concentration (TGI) was 10.5 µM in the assay with SK-MEL-5 melanoma, 11.1 µM in the assay with SNB-75 CNS, 2.92 µM in the assay on U251 CNS and 15.5 µM with UACC-257 melanoma.

As for `C[C@H](c1ccc(F)cc1CCCC(=O)O)N(c1cc(F)ccc1F)S(=O)(=O)c1ccc(Cl)cc1`, the GI50 in the assay on 786-0 renal was 31.2 µM; in the assay on BT-549 breast, 22.4 µM; in the assay on HCC-2998 colon, 20.9 µM; with HCT-116 colon, 19.4 µM; with NCI-H226 lung, 31 µM; in the assay with OVCAR-8 ovarian, 38 µM. Further, the GI50 in the assay with SK-MEL-5 melanoma is 17.5 µM; in the assay with SNB-75 CNS, 29.4 µM; in the assay on U251 CNS, 31.9 µM; with UACC-257 melanoma, 26.9 µM. The TGI was above 100 µM in the assay with 786-0 renal; 68.8 µM in the assay on BT-549 breast; 59.4 µM in the assay on HCC-2998 colon; 47.1 µM in the assay with HCT-116 colon; above 100 µM with NCI-H226 lung; above 100 µM with OVCAR-8 ovarian. The concentration for total growth inhibition (TGI) in the assay with SK-MEL-5 melanoma is 38 µM; in the assay on SNB-75 CNS it was above 91.3 µM; in the assay with U251 CNS, above 100 µM; in the assay with UACC-257 melanoma it was above 100 µM.

`CC(c1cc(Cl)ccc1O)c1cc(Cl)ccc1O`: the GI50 was 15.7 µM in the assay on 786-0 renal; 4.58 µM with BT-549 breast; 3.84 µM with HCC-2998 colon; 3.38 µM with HCT-116 colon; 12 µM with NCI-H226 lung; 4.04 µM in the assay with OVCAR-8 ovarian. In addition, the GI50 in the assay with SK-MEL-5 melanoma is 3.41 µM; in the assay with SNB-75 CNS, 2.49 µM; with U251 CNS it was 3.93 µM. The total growth inhibition concentration (TGI) with 786-0 renal is 36.1 µM; in the assay on BT-549 breast, 16.9 µM; in the assay on HCC-2998 colon, 12.8 µM; in the assay on HCT-116 colon it was 10.3 µM; with NCI-H226 lung, 43.5 µM; in the assay with OVCAR-8 ovarian, 19.9 µM. For the same molecule, the total growth inhibition concentration (TGI) in the assay with SK-MEL-5 melanoma is 10 µM; in the assay with SNB-75 CNS, 11.9 µM; in the assay on U251 CNS it was 14.5 µM.

On to `C/C(=N\NC(=S)N1CCN(c2ccccn2)CC1)c1ccccn1`, for which the 50% growth inhibitory concentration (GI50) with 786-0 renal was 0.00656 µM; in the assay with HCC-2998 colon, 0.252 µM; in the assay with NCI-H226 lung, 0.236 µM; with SK-MEL-5 melanoma it was 0.0688 µM; with U251 CNS, below 0.0161 µM. Also, the total growth inhibition concentration (TGI) in the assay with 786-0 renal worked out at 13.5 µM; with BT-549 breast it was 0.577 µM; in the assay with HCC-2998 colon, 15.3 µM; in the assay on HCT-116 colon, 13.8 µM; in the assay on NCI-H226 lung it was 7.33 µM; in the assay with OVCAR-8 ovarian it was 20.4 µM. The TGI in the assay with SK-MEL-5 melanoma amounted to 13.5 µM; in the assay on SNB-75 CNS, 17.6 µM; in the assay on U251 CNS, 12.9 µM.

Regarding `O=C(c1ccccc1)C(Cl)C(Cl)c1ccccc1` (stereo not drawn), the GI50 was 1.79 µM in the assay on 786-0 renal; 2.55 µM in the assay with BT-549 breast; 2 µM in the assay on HCC-2998 colon; 1.44 µM in the assay with HCT-116 colon; 2.17 µM in the assay on NCI-H226 lung; 3.06 µM with OVCAR-8 ovarian. For the same molecule, the GI50 in the assay on SK-MEL-5 melanoma is 2.93 µM; in the assay with SNB-75 CNS it was 11.2 µM; in the assay with U251 CNS, 3.97 µM. Moreover, the TGI in the assay on 786-0 renal worked out at 3.52 µM; in the assay on BT-549 breast, 6.12 µM; in the assay with HCC-2998 colon, 3.56 µM; in the assay on HCT-116 colon it was 2.95 µM; in the assay with NCI-H226 lung it was 5.35 µM; in the assay with OVCAR-8 ovarian, 10.1 µM. The values for the total growth inhibition concentration (TGI) with SK-MEL-5 melanoma, with SNB-75 CNS and in the assay with U251 CNS were 10.7 µM, 23.3 µM and 14.3 µM, respectively.

As to `COc1cc(-c2cc3ncccc3c3nc(OCCN(C)C)c4cccnc4c23)cc(OC)c1OC`, the GI50 in the assay with 786-0 renal is 0.318 µM; in the assay with BT-549 breast, 0.665 µM; in the assay with HCC-2998 colon, 0.727 µM; in the assay with NCI-H226 lung, 0.623 µM; with OVCAR-8 ovarian, 0.339 µM; with SK-MEL-5 melanoma, 0.468 µM. The figures for the GI50 in the assay on SNB-75 CNS, with U251 CNS and with UACC-257 melanoma were 0.414 µM, 0.391 µM and 0.567 µM, respectively. The TGI in the assay on 786-0 renal was determined as 1.16 µM; in the assay on BT-549 breast, 3.19 µM; in the assay with HCC-2998 colon, 3.1 µM; with NCI-H226 lung it was 2.46 µM; in the assay with OVCAR-8 ovarian, 1.94 µM; with SK-MEL-5 melanoma it was 1.96 µM. Moreover, the results for the TGI in the assay on SNB-75 CNS, in the assay with U251 CNS and in the assay on UACC-257 melanoma were 2.2 µM, 1.66 µM and 4.06 µM, respectively.
